PubChem BioAssay (NCI)
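A five-concentration, 48-hour dose response in 96-well plates underlies each endpoint, interpolated linearly between surrounding concentrations. Here, GI50 denotes the concentration required for 50% inhibition of growth. TGI is the concentration that stops growth completely.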

Tests used:
Assay in all cases: NCI anticancer screen, dose series, 48 h
UACC-62 melanoma = system: UACC-62 melanoma
COLO 205 colon = system: COLO 205 colon
CAKI-1 renal = system: CAKI-1 renal
SK-MEL-28 melanoma = system: SK-MEL-28 melanoma
NCI-H23 lung = system: NCI-H23 lung
UO-31 renal = system: UO-31 renal
SW-620 colon = system: SW-620 colon
OVCAR-5 ovarian = system: OVCAR-5 ovarian
IGROV1 ovarian = system: IGROV1 ovarian
SNB-19 CNS = system: SNB-19 CNS

Row | SMILES | TGI (UACC-62 melanoma) [µM] | TGI (COLO 205 colon) [µM] | TGI (CAKI-1 renal) [µM] | TGI (SK-MEL-28 melanoma) [µM] | TGI (NCI-H23 lung) [µM] | TGI (UO-31 renal) [µM] | TGI (SW-620 colon) [µM] | TGI (OVCAR-5 ovarian) [µM] | TGI (IGROV1 ovarian) [µM] | TGI (SNB-19 CNS) [µM] | GI50 (UACC-62 melanoma) [µM] | GI50 (COLO 205 colon) [µM] | GI50 (CAKI-1 renal) [µM] | GI50 (SK-MEL-28 melanoma) [µM] | GI50 (NCI-H23 lung) [µM] | GI50 (UO-31 renal) [µM] | GI50 (SW-620 colon) [µM] | GI50 (OVCAR-5 ovarian) [µM] | GI50 (IGROV1 ovarian) [µM] | GI50 (SNB-19 CNS) [µM]
1 | Cc1cn(C2C=CC(COP(=O)(OCc3ccc([N+](=O)[O-])o3)N(C)CCCCCl)O2)c(=O)[nH]c1=O (stereo unspecified) | 17.3 | 9.87 | 37 | 22.4 | 10.7 | 31.1 | 27.1 | 30.9 | 12.7 | 21.3 | – | – | – | – | – | – | – | – | – | –
2 | CCCCN(CCCC)CCC(O)c1cc(-c2ccc(C(F)(F)F)cc2)nc(-c2ccc(C(F)(F)F)cc2)c1 (stereo unspecified) | > 100 | > 100 | > 100 | > 100 | > 100 | > 100 | > 100 | > 100 | > 100 | > 100 | – | – | – | – | – | – | – | – | – | –
3 | NC1C=NNC1=O (stereo unspecified) | > 100 | > 100 | > 100 | > 100 | > 100 | > 100 | > 100 | > 100 | > 100 | > 100 | – | – | – | – | – | – | – | – | – | –
4 | CC(C)=Cc1cc(C)c2c3c(c(O)c(O)c(C)c13)C(C)=CC2=O | 50.8 | 26.6 | 58.5 | – | 64.5 | > 100 | > 100 | 73.3 | > 100 | > 100 | – | – | – | – | – | – | – | – | – | –
5 | COc1cc2c(cc1OC)C1c3ccccc3CCN1CCC2 (stereo unspecified) | > 100 | > 100 | > 100 | > 100 | – | > 100 | > 100 | > 100 | > 100 | > 100 | – | – | – | – | – | – | – | – | – | –
6 | CC1C2CCC3C(O)C2(CC(O)C2(O)C1CC(O)C2(C)C)CC3(C)O (stereo unspecified) | > 100 | > 100 | > 100 | > 100 | > 100 | > 100 | > 100 | > 100 | > 100 | > 100 | – | – | – | – | – | – | – | – | – | –
7 | COc1ccc(C(=O)NC2=C(Cl)C(=O)c3ccccc3C2=O)cc1 | 2.63 | 3.74 | 6.94 | 17.9 | 6.05 | 8.75 | 3.45 | 11.4 | 12.9 | 17.4 | – | – | – | – | – | – | – | – | – | –
8 | OC(c1ccc(Cl)cc1)(c1ccc(Cl)cc1)c1cncnc1 | 30.1 | 35.2 | 36.2 | 38 | 61.6 | 31.3 | 55.4 | 36.6 | – | 48.8 | – | – | – | – | – | – | – | – | – | –
9 | O=C(Nn1c(-c2cccs2)nc2ccc(I)cc2c1=O)c1ccccc1 | 57.3 | > 100 | 51 | 53 | 67.4 | 93.3 | > 100 | > 100 | 82.6 | 64.5 | – | – | – | – | – | – | – | – | – | –
10 | Nc1c(OCC(=O)O)ccc2cc(S(=O)(=O)O)ccc12 | > 100 | > 100 | > 100 | > 100 | > 100 | > 100 | > 100 | – | > 100 | > 100 | – | – | – | – | – | – | – | – | – | –
11 | O=NN1C(c2ccccc2)C2CCCC(C2=O)C1c1ccccc1 (stereo unspecified) | 59 | 32 | 94.1 | 44.3 | 48.3 | > 76.2 | > 100 | > 100 | > 92.7 | > 92.5 | – | – | – | – | – | – | – | – | – | –
12 | c1ccc2c(c1)OCCc1cn[nH]c1-2 | > 100 | > 100 | 87.9 | > 100 | > 100 | > 100 | > 100 | > 100 | > 100 | > 100 | – | – | – | – | – | – | – | – | – | –
13 | CN(CCO)Cc1ncccc1O | > 100 | > 100 | > 100 | > 100 | > 100 | > 100 | > 100 | > 100 | > 100 | > 100 | – | – | – | – | – | – | – | – | – | –
14 | O=C1CCCC/C1=C1/SC(=Nc2ccccc2)C(=Nc2ccccc2)N1c1ccccc1 | > 100 | > 100 | > 100 | > 100 | > 100 | > 100 | – | > 100 | > 100 | > 100 | – | – | – | – | – | – | – | – | – | –
15 | CCc1c2cc(OC)c(OC)cc2cc2c3cc(OC)c(OC)cc3cc[n+]12 (tested in a mixture with another compound) | 73.8 | 22.8 | > 73.4 | > 79.4 | 60.5 | > 71.6 | 75.8 | > 100 | > 85.3 | 82.1 | – | – | – | – | – | – | – | – | – | –
16 | O=C(O)C1OC1C(=O)O (stereo unspecified) | > 100 | > 100 | > 100 | > 100 | > 100 | > 100 | > 100 | > 100 | > 100 | > 100 | – | – | – | – | – | – | – | – | – | –
17 | CN1CC(c2ccccc2)C(O)(C2(c3ccccc3)CN(C)CC(c3ccccc3)C2=O)C(c2ccccc2)C1 (stereo unspecified) | > 100 | > 100 | > 100 | > 100 | > 100 | > 100 | > 100 | > 100 | > 100 | > 100 | – | – | – | – | – | – | – | – | – | –
18 | CC[C@@]1(OC(=O)CN(C)C)C(=O)OCc2c1cc1n(c2=O)Cc2cc3c(N)cccc3nc2-1 | 0.159 | 6.9 | 0.0537 | 4.28 | 0.684 | 0.057 | 2.57 | > 100 | 0.421 | > 100 | 0.0164 | 0.656 | < 0.01 | 0.297 | 0.0277 | 0.0166 | 0.0181 | 0.317 | 0.0609 | 0.0252
19 | C[C@]12Cc3cnc(-c4ccccc4)nc3C[C@@H]1CC[C@@H]1[C@@H]2CC[C@@]2(C)[C@H]1CC[C@]2(C)O | 48.4 | 43.2 | 16.6 | 56.9 | 47.3 | 7.06 | > 100 | 63.4 | 63.3 | 44.3 | – | – | – | – | – | – | – | – | – | –
20 | CCC1C(C#N)=C(O)NC(O)=C1C#N | > 100 | > 100 | > 100 | > 100 | > 100 | > 100 | > 100 | > 100 | > 100 | > 100 | – | – | – | – | – | – | – | – | – | –
21 | O=C(O)C(O)(c1ccc(-c2ccccc2)cc1)c1ccc(-c2ccccc2)cc1 | 36.7 | – | > 100 | > 100 | 36.2 | > 100 | > 100 | 77.8 | 57.3 | > 100 | – | – | – | – | – | – | – | – | – | –
22 | Clc1cc2ccccc2c2ccccc12 | > 100 | > 100 | > 100 | > 100 | > 100 | > 100 | > 100 | > 100 | > 100 | > 100 | – | – | – | – | – | – | – | – | – | –
23 | COc1ccc(NC(=S)NNC(=O)c2nsc3ccccc23)cc1 | 71.6 | > 100 | – | > 100 | > 100 | 69.1 | > 100 | > 100 | > 100 | > 100 | – | – | – | – | – | – | – | – | – | –
24 | Clc1ccc(C2CC(c3cccc(Nc4ccncc4)c3)=NN2c2ccc(Cl)cc2)cc1 (stereo unspecified) | 3.04 | 4.75 | 2.79 | 3.09 | 3.49 | 2.74 | 3.6 | 2.88 | 3.18 | – | 1.66 | 2.09 | 1.46 | 1.67 | 1.83 | 1.42 | 1.8 | 1.54 | 1.65 | –
